Measurements from PubChem BioAssay AID248 (DTP/NCI, 2004).
Toxic doses and inconclusive results are not listed.

Test system: L1210 leukemia ip in BDF1 mice, survival T/C
Test: NCI In Vivo Anticancer Drug Screen. Data for tumor model L1210 Leukemia (intraperitoneal) in B6D2F1 (BDF1) mice
Settings: endpoint: mean survival time, higher = longer survival
In short: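 Survival endpoint. Drug-treated group vs vehicle group, expressed as T divided by C. Tumor passaged by transplantation.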

[1] = dose: 100.0 mg/kg/injection, schedule: Q04DX002 (ip), vehicle: Klucel (hydroxypropylcellulose) (HPC)
[2] = dose: 200.0 mg/kg/injection, schedule: Q04DX002 (ip), vehicle: Klucel (hydroxypropylcellulose) (HPC)
[3] = dose: 100.0 mg/kg/injection, schedule: Q04DX003 (ip), vehicle: saline with Tween-80
[4] = dose: 200.0 mg/kg/injection, schedule: Q04DX003 (ip), vehicle: saline with Tween-80
[5] = dose: 400.0 mg/kg/injection, schedule: Q04DX003 (ip), vehicle: saline with Tween-80
[6] = dose: 75.0 mg/kg/injection, schedule: Q01DX001 (ip), vehicle: acetone
[7] = dose: 100.0 mg/kg/injection, schedule: Q04DX003 (ip), vehicle: Klucel (hydroxypropylcellulose) (HPC)
[8] = dose: 150.0 mg/kg/injection, schedule: Q01DX001 (ip), vehicle: acetone
[9] = dose: 200.0 mg/kg/injection, schedule: Q04DX003 (ip), vehicle: Klucel (hydroxypropylcellulose) (HPC)
[10] = dose: 100.0 mg/kg/injection, schedule: Q01DX009 (ip), vehicle: saline with Tween-80
[11] = dose: 200.0 mg/kg/injection, schedule: Q01DX009 (ip), vehicle: saline with Tween-80
[12] = dose: 100.0 mg/kg/injection, schedule: Q01DX001 (ip), vehicle: carboxymethylcellulose (CMC)
[13] = dose: 200.0 mg/kg/injection, schedule: Q01DX001 (ip), vehicle: carboxymethylcellulose (CMC)
[14] = dose: 400.0 mg/kg/injection, schedule: Q01DX001 (ip), vehicle: carboxymethylcellulose (CMC)
[15] = dose: 100.0 mg/kg/injection, schedule: Q01DX009 (ip), vehicle: saline
[16] = dose: 200.0 mg/kg/injection, schedule: Q01DX009 (ip), vehicle: saline
[17] = dose: 100.0 mg/kg/injection, schedule: Q01DX001 (ip), vehicle: saline
[18] = dose: 200.0 mg/kg/injection, schedule: Q01DX001 (ip), vehicle: saline
[19] = dose: 400.0 mg/kg/injection, schedule: Q01DX009 (ip), vehicle: saline with Tween-80
[20] = dose: 100.0 mg/kg/injection, schedule: Q01DX009 (ip), vehicle: Klucel (hydroxypropylcellulose) (HPC)
[21] = dose: 200.0 mg/kg/injection, schedule: Q01DX009 (ip), vehicle: Klucel (hydroxypropylcellulose) (HPC)
[22] = dose: 100.0 mg/kg/injection, schedule: Q04DX003 (ip), vehicle: saline
[23] = dose: 400.0 mg/kg/injection, schedule: Q01DX001 (ip), vehicle: saline

SMILES: COc1ccc(C=C2c3ccccc3-c3ccccc32)cc1
- T/C (dose: 100.0 mg/kg/injection, schedule: Q04DX003 (ip), vehicle: saline sonified): 95 % of control
- T/C (dose: 200.0 mg/kg/injection, schedule: Q04DX003 (ip), vehicle: saline sonified): 100 % of control
- T/C (dose: 400.0 mg/kg/injection, schedule: Q04DX003 (ip), vehicle: saline sonified): 94 % of control

SMILES: CN1CCC2(CC1)C(=O)N(Nc1ccccc1)C(=O)C2c1ccccc1 (stereo not given)
- T/C [1]: 101 % of control
- T/C [2]: 93 % of control

SMILES: CC(=O)Oc1cc2c3c(c1)CCCN3CCC2
- T/C (dose: 1.25 mg/kg/injection, schedule: Q01DX009 (ip), vehicle: saline): 101 % of control
- T/C (dose: 2.5 mg/kg/injection, schedule: Q01DX009 (ip), vehicle: saline): 106 % of control
- T/C (dose: 5.0 mg/kg/injection, schedule: Q01DX009 (ip), vehicle: saline): 98 % of control

SMILES: O=C(O)CCC(=O)Nc1ccc(Cl)cc1
- T/C [3]: 97 % of control
- T/C [4]: 94 % of control
- T/C [5]: 86 % of control

SMILES: C#CCNc1ccc(C(=O)OCC)cc1
- T/C (dose: 100.0 mg/kg/injection, schedule: Q04DX002 (ip), vehicle: gum acacia): 99 % of control
- T/C (dose: 200.0 mg/kg/injection, schedule: Q04DX002 (ip), vehicle: gum acacia): 108 % of control
- T/C (dose: 400.0 mg/kg/injection, schedule: Q04DX002 (ip), vehicle: gum acacia): 92 % of control

SMILES: O=CNNc1ccccc1
- T/C [6]: 98 % of control
- T/C [7]: 106 % of control
- T/C [8]: 100 % of control
- T/C [9]: 95 % of control
- T/C (dose: 300.0 mg/kg/injection, schedule: Q01DX001 (ip), vehicle: acetone): 96 % of control

SMILES: CC(Br)C(=O)NCC(=O)O (stereo not given)
- T/C [10]: 93 % of control
- T/C [11]: 92 % of control

SMILES: Cc1c(Br)sc2ccccc12
- T/C [12]: 96 % of control
- T/C [13]: 96 % of control
- T/C [14]: 107 % of control

SMILES: COC(=O)C(Br)C(C)OC (stereo not given)
- T/C [15]: 96 % of control
- T/C [16]: 101 % of control

SMILES: O=C(O)c1cc([N+](=O)[O-])cs1
- T/C [17]: 98 % of control
- T/C [18]: 104 % of control

SMILES: COc1ccccc1OC(=O)Nc1cc([N+](=O)[O-])ccc1C
- T/C [10]: 89 % of control
- T/C [11]: 96 % of control
- T/C [19]: 121 % of control

SMILES: COC(=O)c1cccc(C)c1NC(=O)NCCCl
- T/C [7]: 96 % of control
- T/C [9]: 96 % of control
- T/C (dose: 400.0 mg/kg/injection, schedule: Q04DX003 (ip), vehicle: Klucel (hydroxypropylcellulose) (HPC)): 94 % of control

SMILES: CS(=O)(=O)Oc1ccc2c(c1)CCC2
- T/C [12]: 104 % of control
- T/C [13]: 101 % of control
- T/C [14]: 95 % of control

SMILES: CCCCCCOC(N)=O
- T/C (dose: 50.0 mg/kg/injection, schedule: Q01DX009 (ip), vehicle: Klucel (hydroxypropylcellulose) (HPC)): 96 % of control
- T/C [20]: 96 % of control
- T/C [7]: 96 % of control
- T/C [21]: 96 % of control
- T/C [9]: 96 % of control

SMILES: CN1OC(C#N)(C#N)C(C#N)(C#N)C1c1ccccc1 (stereo not given)
- T/C [15]: 103 % of control
- T/C [22]: 101 % of control
- T/C [16]: 106 % of control
- T/C (dose: 200.0 mg/kg/injection, schedule: Q04DX003 (ip), vehicle: saline): 89 % of control
- T/C (dose: 400.0 mg/kg/injection, schedule: Q01DX009 (ip), vehicle: saline): 101 % of control
- T/C (dose: 400.0 mg/kg/injection, schedule: Q04DX003 (ip), vehicle: saline): 109 % of control

SMILES: O=C(CNC(=O)c1cccc(C(=O)NCC(=O)Nc2ccc(C3=NCCN3)cc2)c1)Nc1ccc(C2=NCCN2)cc1
- T/C (dose: 4.0 mg/kg/injection, schedule: Q01DX Z (ip), vehicle: water): 107 % of control
- T/C (dose: 6.0 mg/kg/injection, schedule: Q01DX Z (ip), vehicle: water): 104 % of control
- T/C (dose: 9.0 mg/kg/injection, schedule: Q01DX Z (ip), vehicle: water): 113 % of control
- T/C (dose: 12.0 mg/kg/injection, schedule: Q01DX Z (ip), vehicle: water): 153 % of control

SMILES: [O-][N+](=Nc1ccc2c(c1)Cc1ccccc1-2)c1ccc2c(c1)Cc1ccccc1-2
- T/C [3]: 96 % of control
- T/C [4]: 92 % of control
- T/C [5]: 91 % of control

SMILES: C1#CCCCCCC#CCCCC1
- T/C (dose: 37.5 mg/kg/injection, schedule: Q01DX009 (ip), vehicle: acetone): 89 % of control
- T/C [6]: 91 % of control
- T/C (dose: 75.0 mg/kg/injection, schedule: Q01DX009 (ip), vehicle: acetone): 97 % of control
- T/C [8]: 94 % of control
- T/C (dose: 150.0 mg/kg/injection, schedule: Q01DX009 (ip), vehicle: acetone): 98 % of control

SMILES: Cc1cc(C)c(O)c(CN(Cc2cc(C)cc(C)c2O)C2CCCCC2)c1
- T/C [17]: 96 % of control
- T/C [18]: 88 % of control
- T/C [23]: 88 % of control

SMILES: COc1ccc(N(C)C(C)=S)cc1
- T/C (dose: 100.0 mg/kg/injection, schedule: Q04DX003 (ip), vehicle: gum acacia): 96 % of control
- T/C (dose: 200.0 mg/kg/injection, schedule: Q04DX003 (ip), vehicle: gum acacia): 103 % of control

SMILES: CCOc1ccn(CC(=O)c2ccc(Cl)s2)c(=O)n1
- T/C [10]: 93 % of control
- T/C [3]: 100 % of control
- T/C [11]: 90 % of control
- T/C [4]: 100 % of control
- T/C [19]: 86 % of control
- T/C [5]: 101 % of control

SMILES: OCCN1CCN(CCCN2c3ccccc3C=Cc3ccccc32)CC1
- T/C (dose: 6.25 mg/kg/injection, schedule: Q01DX009 (ip), vehicle: saline): 93 % of control
- T/C (dose: 12.5 mg/kg/injection, schedule: Q01DX009 (ip), vehicle: saline): 93 % of control
- T/C (dose: 25.0 mg/kg/injection, schedule: Q01DX009 (ip), vehicle: saline): 95 % of control
- T/C (dose: 25.0 mg/kg/injection, schedule: Q04DX003 (ip), vehicle: saline): 93 % of control
- T/C (dose: 50.0 mg/kg/injection, schedule: Q01DX009 (ip), vehicle: saline): 102 % of control
- T/C (dose: 50.0 mg/kg/injection, schedule: Q04DX003 (ip), vehicle: saline): 98 % of control
- T/C [22]: 102 % of control

SMILES: NC(=O)Nc1cccc(C(=O)O)c1C(=O)O
- T/C (dose: 100.0 mg/kg/injection, schedule: Q01DX001 (ip), vehicle: other): 101 % of control
- T/C (dose: 100.0 mg/kg/injection, schedule: Q04DX003 (ip), vehicle: other): 102 % of control
- T/C (dose: 200.0 mg/kg/injection, schedule: Q01DX001 (ip), vehicle: other): 101 % of control
- T/C (dose: 200.0 mg/kg/injection, schedule: Q04DX003 (ip), vehicle: other): 98 % of control
- T/C (dose: 400.0 mg/kg/injection, schedule: Q01DX001 (ip), vehicle: other): 107 % of control
- T/C (dose: 400.0 mg/kg/injection, schedule: Q04DX003 (ip), vehicle: other): 98 % of control

SMILES: O=C(NOCCCl)Nc1ccccc1
- T/C (dose: 125.0 mg/kg/injection, schedule: Q01DX Z (ip), vehicle: carboxymethylcellulose (CMC)): 96 % of control
- T/C (dose: 200.0 mg/kg/injection, schedule: Q01DX Z (ip), vehicle: carboxymethylcellulose (CMC)): 96 % of control
- T/C (dose: 250.0 mg/kg/injection, schedule: Q01DX Z (ip), vehicle: carboxymethylcellulose (CMC)): 107 % of control
- T/C (dose: 500.0 mg/kg/injection, schedule: Q01DX Z (ip), vehicle: carboxymethylcellulose (CMC)): 95 % of control

SMILES: O=C(OCC1OC(OC(=O)c2ccccc2)C(OC(=O)c2ccccc2)C(OC(=O)c2ccccc2)C1OC(=O)c1ccccc1)c1ccccc1 (stereo not given)
- T/C [17]: 98 % of control
- T/C [18]: 98 % of control
- T/C [23]: 106 % of control

SMILES: C(=N\N1CCN(/N=C/c2ccc(OCc3ccccc3)cc2)CC1)/c1ccc(OCc2ccccc2)cc1
- T/C [17]: 102 % of control
- T/C [18]: 96 % of control
- T/C [23]: 93 % of control

SMILES: COc1cc2oc(C)c(C)c2cc1/C=C\[N+](=O)[O-]
- T/C (dose: 50.0 mg/kg/injection, schedule: Q04DX002 (ip), vehicle: Klucel (hydroxypropylcellulose) (HPC)): 96 % of control
- T/C [20]: 93 % of control
- T/C [1]: 93 % of control
- T/C [21]: 98 % of control
- T/C [2]: 96 % of control
- T/C (dose: 400.0 mg/kg/injection, schedule: Q01DX009 (ip), vehicle: Klucel (hydroxypropylcellulose) (HPC)): 100 % of control
